Like-named read-outs stand apart in the source and are kept apart here.
What was measured:
Pancreatic CSCs [1] = assay: pancreatic CSCs xenografted sub-cutaneously in NSG mice; type: in vivo; settings: NOD/SCID/IL2R gamma mice, 20 mg/kg, 6 weeks
Procedure: (§1) (A) Pancreatic CSCs were orthotopically implanted in pancreas of NSG mice, and treated with or without sulforaphane 20 mg/kg, for 6 weeks, (B and C) Pancreatic CSCs were xenografted sub-cutaneously in NSG mice, and treated with or without rottlerin and embelin 20 mg/kg, for 6 weeks, (D and E) Prostate CSCs were xenografted sub-cutaneously in NSG mice, and treated with or without rottlerin and embelin 20 mg/kg, for 6 weeks. At the end of the treatment, weights of tumors in treated mice were compared with control mice.

[2] = tested on: Notch reporter activity in prostate CSCs; assay: Notch-responsive dual luciferase reporter; type: cell-based, human; settings: rottlerin 0-2 μM, 24 h, dual luciferase assay
Procedure: (§2) FIG. 17 graphs showing the regulation of Shh, Notch and TGFβ pathways by rottlerin. […] The expression of Patched-1, Patched-2, SMO, Gli1 and Gli2 was measured by qRT-PCR. […] Data were normalized with GAPDH. (D) Prostate CSCs were treated with rottlerin (0-1 μM) for 24 h. The expression of Notch1, Notch3 and JAG1 was measured by qRT-PCR. (E) TCF/LEF-1, Gli and Notch reporter activities. Prostate CSCs were transduced with a mixture of TCF/LEF1-, Gli-, or Notch-responsive firefly luciferase construct and Renilla luciferase construct (40:1) along with lipofectamine. After transduction, medium was changed and CSCs were treated with rottlerin (0-2 μM) for 24 h. […] (F) Immunofluorescence analysis of Gli1 and Gli2 expression in prostate CSCs. Green=Gli1 or Gli2; red=nucleus.

Prostate CSCs [3] = assay: prostate CSCs xenografted sub-cutaneously in NSG mice; type: in vivo; settings: NOD/SCID/IL2R gamma mice, 20 mg/kg, 6 weeks
Procedure: as §1

[4] = tested on: TCF/LEF-1 reporter activity in prostate CSCs; assay: TCF/LEF1-responsive dual luciferase reporter; type: cell-based, human; settings: rottlerin 0-2 μM, 24 h, dual luciferase assay
Procedure: as §2

Prostate CSCs [5] = assay: colony formation in soft agar; type: cell-based, human; settings: 21 days; embelin 0-6 μM, rottlerin 0-2 μM
Procedure: (§3) In particular, embelin is shown to inhibit spheroid and colony formation, and induce caspase-3 and apoptosis. (A) Prostate CSCs were grown in CSC medium and treated with embelin (0-6 μM) for 7 days to obtain primary spheroids. At the end of incubation period, spheroids were collected, reseeded and treated with embelin for another week to obtain secondary spheroids. Cell viability in spheroids was measured by trypan blue assay at the end of 7 and 14 days. […] (B) Prostate CSCs were seeded in soft agar and treated with embelin (0-6 μM) for 21 days. […] (C and D) Activation of caspase-3 and induction of apoptosis is shown.
as §3, with “(A)” for “In particular, embelin is shown to inhibit spheroid and colony formation, and induce caspase-3 and apoptosis. (A)”, “rottlerin (0-2” for “embelin (0-6”, “rottlerin” for “embelin”, “apoptosis.” for “apoptosis is shown.”

Prostate CSCs [6] = assay: gene expression by qRT-PCR; type: cell-based, human; settings: 24 h
Procedure: FIG. 15 is a graph showing that rottlerin inhibits the expression of survivin, XIAP, Bcl-2 and Bcl-XL in prostate CSCs. Prostate CSCs were treated with rottlerin (0-2 μM) for 24 h, and the expression of survivin, XIAP, Bcl-2 and Bcl-XL was measured by the q-RT-PCR. […] Data were normalized with GAPDH.
FIG. 16 is a graph showing the regulation by rottlerin of cMyc, Nanog, Oct3/4 and Sox-2 in prostate CSCs. Prostate CSCs were treated with rottlerin (0-1 μM) for 24 h. The expression of cMyc, Nanog, Oct3/4 and Sox-2 was measured by qRT-PCR. […] Data were normalized with GAPDH.
as §2

[7] = tested on: Gli1 and Gli2 in prostate CSCs; assay: immunofluorescence analysis of Gli1 and Gli2 expression; type: cell-based, human; settings: measured by IFC
Procedure: as §2

[8] = tested on: Gli reporter activity in prostate CSCs; assay: Gli-responsive dual luciferase reporter; type: cell-based, human; settings: rottlerin 0-2 μM, 24 h, dual luciferase assay
Procedure: as §2

[9] = tested on: human pancreatic cancer cells
pancreatic cancer = settings: KrasG12D mice
Pancreatic CSCs [10] = settings: NOD/SCID/IL2R gamma mice, 20 mg/kg, 6 weeks
Procedure: as §1

[11] = tested on: pancreatic cancer stem cells

CC(=O)c1c(O)c(C)c(O)c(Cc2c(O)c3c(c(C(=O)/C=C/c4ccccc4)c2O)OC(C)(C)C=C3)c1O [rottlerin]
tumor growth (weights of tumors vs control mice) (Pancreatic CSCs [1]): inhibit tumor growth
Notch responsive reporter activity [2]: inhibited the TCF/LEF1, Gli1 and Notch responsive reporter activities in a dose-dependent manner
tumor growth (weights of tumors vs control mice) (Prostate CSCs [3]): inhibit tumor growth
TCF/LEF1 responsive reporter activity [4]: inhibited the TCF/LEF1, Gli1 and Notch responsive reporter activities in a dose-dependent manner
colony formation in soft agar (Prostate CSCs [5]): inhibited
expression of Bcl-2 (Prostate CSCs [6]; normalized with GAPDH): inhibited the expression
expression of Bcl-XL (Prostate CSCs [6]; normalized with GAPDH): inhibited the expression
expression of Gli1 (Prostate CSCs [6]; normalized with GAPDH): inhibited the expression
expression of Gli2 (Prostate CSCs [6]; normalized with GAPDH): inhibited the expression
expression of Nanog (Prostate CSCs [6]; normalized with GAPDH): inhibited the expression
expression of Oct3/4 (Prostate CSCs [6]; normalized with GAPDH): inhibited the expression
expression of Patched-1 (Prostate CSCs [6]; normalized with GAPDH): inhibited the expression
expression of Patched-2 (Prostate CSCs [6]; normalized with GAPDH): inhibited the expression
expression of SMO (Prostate CSCs [6]; normalized with GAPDH): inhibited the expression
expression of Sox-2 (Prostate CSCs [6]; normalized with GAPDH): inhibited the expression
expression of XIAP (Prostate CSCs [6]; normalized with GAPDH): inhibited the expression
expression of cMyc (Prostate CSCs [6]; normalized with GAPDH): inhibited the expression
expression of survivin (Prostate CSCs [6]; normalized with GAPDH): inhibited the expression
expression of JAG1 (Prostate CSCs [6]; rottlerin 0-1 μM): inhibited the expression
expression of Notch1 (Prostate CSCs [6]; rottlerin 0-1 μM): inhibited the expression
expression of Notch3 (Prostate CSCs [6]; rottlerin 0-1 μM): inhibited the expression
nuclear expression of constitutively active Gli1 [7]: inhibited the nuclear expression
nuclear expression of constitutively active Gli2 [7]: inhibited the nuclear expression
Gli responsive reporter activity [8]: inhibited the TCF/LEF1, Gli1 and Notch responsive reporter activities in a dose-dependent manner

C[S+]([O-])CCCCN=C=S (stereo not shown) [sulforaphane]
growth of human pancreatic cancer cells [9]: inhibits the growth
pancreatic cancer progression (pancreatic cancer): inhibits the growth of pancreatic cancer progression
tumor growth (weights of tumors vs control mice) (Pancreatic CSCs [10]): inhibit tumor growth
growth of pancreatic cancer stem cells [11]: inhibits the growth

Source: patent US20160374944A1, “COMPOSITIONS AND METHODS FOR TREATING AND PREVENTING CANCER BY TARGETING AND INHIBITING CANCER STEM CELLS” (priority 2011, published 2016)
